Results reported in patent US20240101510A1, “APYRASE INHIBITORS” (Texas Crop Science, priority 2022, published 2024).

Key:
[1] = tested on: apyrase; assay: In vitro apyrase assay (screen for apyrase inhibitors, phosphate release read at 630 nm); format: biochemical; conditions: inhibitor conc at 1 mM; 1 hr at room temperature; rounded average of two assay results
Protocol: Method 1: In Vitro Apyrase Assay: Apyrase inhibitors useful as enhancers of pesticidal activity are assessed using an in vitro assay. The method of Windsor, Bio Techniques 33:1024-1030 (November 2002) was used as follows: Screen for Apyrase Inhibitors - 96 well plates were used for the assay: (Greiner bio-one: REF-655901-96 well, PS, F-bottom, Clear, Non-binding) Buffers: • Reaction Buffer: 60 mM Hepes; 3 mM MgCl2, 3 mM CaCl2 and 3 mM ATP (pH 6.5) • Development Buffer A: 2% aqueous ammonium molybdate • Development Buffer B: 11% ascorbic acid in 37.5% TCA in water • Stop buffer C: 2% trisodium citrate in 2% acetic acid solution in water • Add 100 μl of reaction buffer to each well. • Add […] (control) or inhibitor/compound or compounds such as […] or orthovanadate to each well. […] A blank cell indicates either <10% observed inhibition or a large difference between repetitions. In certain examples, the lack of observed inhibition is due to a lack of solubility of the compound under assay conditions, rather than a lack of apyrase inhibitory activity. Roux compound 15 inhibited apyrase in this assay at about 60%.

[2] = tested on: Zymoseptoria tritici with a reduced susceptibility to SDHI fungicides; assay: In vitro assessment of combination activity with fungicides on agar; format: cell-based; conditions: fungicide at a rate just below that giving any control; visual assessment of % control;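 note: scored as inactive or active or highly active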
Protocol: (§1) Method 2: In Vitro Assessment of Combination Activity
(§2) Selected compounds were assessed in combination with fungicides against a range of commercially important plant pathogenic fungi.
(§3) The test was conducted as follows. A fungicide was applied to a fungal plant pathogen at a rate slightly below that at which it gave any control, in combination with a suitable dose of the test compound. The test compound was recorded as active if control of the pathogen was observed.
(§4) In more detail, the test was conducted as follows. For each combination of fungicide, pathogen and test compound, the following wells were used. Well 1 contained a fungal pathogen growing on agar, and a fungicide at a rate just below that at which it gave any control of the pathogen. Well 2 was the same as Well 1, except that the test compound was also added at Rate 1. Well 3 was the same as Well 2, except that the test compound was added at Rate 2, where Rate 2 was higher than Rate 1. Finally, as a benchmark, Well 4 was the same as Well 1, except that it contained the fungicide at a higher rate, at which it gave partial control of the pathogen. Each of the Wells 1 to 4 were run in duplicate, giving a total of 8 wells for each combination of fungicide, pathogen and test compound. For each well, after a suitable period of incubation, a visual assessment of the % control of the pathogen by the fungicide was made.
(§5) The following fungicides were used in this assay: azoxystrobin, fluxapyroxad, and desthio prothioconazole. The following fungal pathogens were used in this assay. First, a strain of Zymoseptoria tritici with a reduced susceptibility to strobilurin fungicides; second a strain of Zymoseptoria tritici with a reduced susceptibility to SDHI fungicides (i.e., those that inhibit succinate dehydrogenase); and third, Microdochium nivale.

[3] = tested on: Microdochium nivale; assay: as above; format: cell-based; conditions: fungicide at a rate just below that giving any control; visual assessment of % control;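 note: scored as inactive or active or highly active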
Protocol: as §1, §2, §3, §4, §5

[4] = tested on: Zymoseptoria tritici with a reduced susceptibility to strobilurin fungicides; assay: as above; format: cell-based; conditions: fungicide at a rate just below that giving any control; visual assessment of % control;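 note: scored as inactive or active or highly active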
Protocol: as §1, §2, §3, §4, §5

[5] = tested on: Botrytis cinerea on tomatoes; assay: Greenhouse crop test in combination with commercial fungicide; format: in vivo; conditions: for control of Botrytis by Amistar in combination with test compound: Amistar 0.03 L/ha; for activity against Botrytis of Balaya in combination with test compound: compared to Balaya alone; for control of Botrytis by Imtrex in combination with test compound: Imtrex 0.005 L/ha, compared to Imtrex alone or with Roux Compound 15 at 30 ppm; for control of Botrytis by Proline in combination with test compound: Proline 0.00075 L/ha, compared to Proline alone
Protocol: (§6) Method 3: Greenhouse Crop Tests
(§7) In this method, exemplary compounds were evaluated for their ability to control Zymoseptoria tritici on wheat, Botrytis cinerea on tomatoes, Asian Soya Rust (Phakopsora pachyrhizi) on soybean, and Brown Rust (Puccinia recondita) on wheat, in a controlled greenhouse environment in combination with one of four fungicides, Amistar, Imtrex, Proline or Balaya. In these studies, soybean cultivar Siverka, tomato (Money maker) and wheat plants (JB Diego) were used. Seeds were sown in 9 cm diameter pots to a depth of 1 to 2 cm using Petersfield potting compost (75% medium grade peat, 12% screened sterilized loam, 3% medium grade vermiculite, 10% grit (5 mm screened, lime free), 1.5 kg PG mix per m3, lime to pH5.5-6.0 and wetting agent (Vitax Ultrawet 200 ml per m3) and germinated/grown at 23° C. under a 16 h day/8 h night light regime. Plants were treated two to three weeks after sowing when they were at the BBCH 11 growth stage (first pair of true leaves (unifoliate) unfolded. A track sprayer was used to treat the plants with the mixture of commercial fungicide and test compound using a water volume of 200 L/ha. Plants were inoculated with the appropriate fungi (pathogen) 24 hours after treatment. Fungal pathogens used were Botrytis cinerea (Grey mold on tomato plants), Zymoseptoria tritici (Septoria leaf blotch on wheat plants), Puccinia triticina (Brown rust on wheat plants) and Phakopsora pachyrhyzi (Asian soy rust on soybean plants). Four replicates were used for each combination of fungicide, pathogen and test compound. Each plant was evaluated once the disease symptoms were fully expressed between seven to twenty days (depending on the pathogen) for % control of the disease. Appropriate controls were used for all experiments, including an ‘inoculation check’ wherein plants were inoculated with their specific pathogen to assess disease levels. Also, each commercial fungicide was tested on its own as a part of each treatment, this being benchmark against which the experimental compounds were evaluated. […] That is, the present compounds, although not fungicidal by themselves, enhance the activity of fungicides.
(§8) In these studies the fungicide was applied at the following rates

[6] = tested on: Brown Rust (Puccinia recondita) on wheat; assay: as above; format: in vivo; conditions: Imtrex 0.35 L/ha; test compound at 20 ppm
Protocol: as §6, §7, §8

[7] = tested on: Asian Soya Rust (Phakopsora pachyrhizi) on soybean; assay: as above; format: in vivo; conditions: test compound at 20 ppm
Protocol: as §6, §7, §8

[8] = tested on: Zymoseptoria tritici on wheat; assay: as above; format: in vivo; conditions: test compound at 20 ppm; for control of Zymoseptoria tritici by Balaya in combination with test compound: Balaya 0.0015 L/ha, compared to Balaya alone or with Roux Compound 15 at 30 ppm; for control of Zymoseptoria tritici by Proline in combination with test compound: Proline 0.0075 L/ha, compared to Proline alone and with Roux Compound 15
Protocol: as §6, §7, §8

[9] = test compound rate not printed (same rate for both, the higher rate), compared to Amistar alone
[10] = Balaya 0.0015 L/ha, test compound at 15 ppm

C/C(=N\NC(=O)c1cccc(F)c1)c1ccccn1 [I-4, (E)-3-fluoro-N′-(1-(pyridin-2-yl)ethylidene)benzohydrazide]
% Inhibition of Apyrase [1]: 24% | activity in combination with azoxystrobin [2]: significant activity | activity in combination with desthio prothioconazole [2]: significant activity | activity in combination with fluxapyroxad [2]: significant activity | activity in combination with azoxystrobin [3]: significant activity | activity in combination with desthio prothioconazole [3]: significant activity | activity in combination with fluxapyroxad [3]: significant activity | activity in combination with azoxystrobin [4]: significant activity | activity in combination with desthio prothioconazole [4]: significant activity | activity in combination with fluxapyroxad [4]: significant activity | control of Botrytis by Amistar in combination with test compound ([5]; test compound at 15 ppm, compared to Amistar with Roux Compound 15 at 15 ppm): much higher levels of control | control of Botrytis by Amistar in combination with test compound [5, 9]: substantially higher than with Amistar alone | activity against Botrytis of Balaya in combination with test compound [5, 10]: significantly more active | control of Botrytis by Imtrex in combination with test compound ([5]; test compound at 30 ppm): far superior control | control of Botrytis by Proline in combination with test compound ([5]; test compound at 30 ppm): notably higher than with Proline alone

CCCC/C=N/NC(=O)c1ccccc1 [I-9, (E)-N′-pentylidenebenzohydrazide]
% Inhibition of Apyrase [1]: 19% | activity in combination with desthio prothioconazole [2]: significant activity | activity in combination with azoxystrobin [3]: significant activity

C/C(=N\NC(=O)c1cccc(NS(C)(=O)=O)c1)c1ccc2ccccc2c1 [I-214, (E)-N-(3-(2-(1-(naphthalen-2-yl)ethylidene)hydrazine-1-carobnyl)phenyl)methanesulfonamide]
% Inhibition of Apyrase [1]: 55% | activity in combination with desthio prothioconazole [2]: significant activity | activity in combination with fluxapyroxad [3]: significant activity | activity in combination with desthio prothioconazole [4]: significant activity | activity of Imtrex against Brown Rust with addition of test compound [6]: substantially enhanced | activity of Amistar against Asian Soybean Rust with addition of test compound ([7]; Amistar 0.02 L/ha): substantially enhanced | activity of Balaya against Asian Soybean Rust with addition of test compound ([7]; Balaya 0.03 L/ha): substantially enhanced | activity of Proline against Asian Soybean Rust with addition of test compound ([7]; Proline 0.15 L/ha): substantially enhanced | control of Zymoseptoria tritici by Amistar in combination with test compound ([8]; Amistar 0.1 L/ha, compared to Amistar alone or with Roux Compound 15 at 30 ppm): notably superior control | control of Zymoseptoria tritici by Balaya in combination with test compound [8]: notably superior control | control of Zymoseptoria tritici by Imtrex in combination with test compound ([8]; Imtrex 0.02 L/ha, similar to Imtrex with Roux Compound 15 at 15 and 30 ppm): superior control to Imtrex or Proline alone | control of Zymoseptoria tritici by Proline in combination with test compound [8]: superior control to Imtrex or Proline alone | control of Botrytis by Balaya in combination with test compound ([5]; Balaya 0.0015 L/ha, test compound at 20 ppm, compared to Balaya alone or with Roux Compound 15 at 30 ppm): notably superior control | control of Botrytis by Imtrex in combination with test compound ([5]; test compound at 20 ppm): notably superior control

C/C(=N\NC(=O)c1cccc(C)c1)c1cnc2ccccc2c1 [I-215, (E)-3-methyl-N′-(1-(quinolin-3-yl)ethylidene)benzohydrazide]
% Inhibition of Apyrase [1]: 46% | activity in combination with fluxapyroxad [3]: significant activity

CNS(=O)(=O)c1cccc(C(=O)N/N=C(\C)c2ccc3ccccc3c2)c1 [I-222, (E)-N-methyl-3-(2-(1-(naphthalen-2-yl)ethylidene)hydrazine-1-carbonyl)benzenesulfonamide]
% Inhibition of Apyrase [1]: 12%

C/C(=N\NC(=O)c1cc(C)ncn1)c1ccc2ccccc2c1 [I-223, (E)-6-methyl-N′-(1-(naphthalen-2-yl)ethylidene)pyrimidine-4-carbohydrazide]
% Inhibition of Apyrase [1]: 10% | activity in combination with fluxapyroxad [3]: significant activity | activity in combination with desthio prothioconazole [4]: significant activity | control of Zymoseptoria tritici by Balaya in combination with test compound [8]: notable superior results | control of Zymoseptoria tritici by Proline in combination with test compound [8]: notable superior results

C/C(=N\NC(=O)c1cccc(C)c1)c1ccc2c(c1)CCC2 [I-224, (E)-N′-(1-(2,3-dihydro-1H-inden-5-yl)ethylidene)-3-methylbenzohydrazide]
% Inhibition of Apyrase [1]: 10%

C/C(=N\NC(=O)c1nccc(C)n1)c1ccc2ccccc2c1 [I-225, (E)-4-methyl-N′-(1-(naphthalen-2-yl)ethylidene)pyrimidine-2-carbohydrazide]
% Inhibition of Apyrase [1]: 6%

C/C(=N\NC(=O)c1cncc(C)c1)c1ccc2ccccc2c1 [I-226, (E)-5-methyl-N′-(1-(naphthalen-2-yl)ethylidene)nicotinohydrazide]
% Inhibition of Apyrase [1]: 1%

C/C(=N\NC(=O)c1cccc(C)c1)c1ccc2ccccc2c1 [Roux compound 15, reference compound]
% Inhibition of Apyrase [1]: about 60% | activity in combination with azoxystrobin [2]: no activity | activity in combination with desthio prothioconazole [2]: no activity | activity in combination with fluxapyroxad [2]: no activity | activity in combination with azoxystrobin [3]: no activity | activity in combination with desthio prothioconazole [3]: no activity | activity in combination with fluxapyroxad [3]: no activity | activity in combination with azoxystrobin [4]: no activity | activity in combination with desthio prothioconazole [4]: no activity | activity in combination with fluxapyroxad [4]: no activity | control of Botrytis by Amistar in combination with test compound [5, 9]: substantially higher than with Amistar alone | activity against Botrytis of Balaya in combination with test compound [5, 10]: no more active against Botrytis than Balaya alone | control of Botrytis by Proline in combination with test compound ([5]; test compound at 30 ppm): notably higher than with Proline alone
